The source made the active and inactive calls.
Key:
Orexin receptor type 2 [1] = target: T1, Orexin receptor type 2 (Homo sapiens, UniProt O43614); test: Counterscreen assay for antagonists of the orexin 1 receptor (OX1R; HCRTR1): Homogeneous Time Resolved Fluorescence (HTRF)-based cell-based dose response assay for antagonists of the orexin 2 receptor (OX2R; HCRTR2), run by assay provider.; type: functional
T1 sequence (O43614 whole entry): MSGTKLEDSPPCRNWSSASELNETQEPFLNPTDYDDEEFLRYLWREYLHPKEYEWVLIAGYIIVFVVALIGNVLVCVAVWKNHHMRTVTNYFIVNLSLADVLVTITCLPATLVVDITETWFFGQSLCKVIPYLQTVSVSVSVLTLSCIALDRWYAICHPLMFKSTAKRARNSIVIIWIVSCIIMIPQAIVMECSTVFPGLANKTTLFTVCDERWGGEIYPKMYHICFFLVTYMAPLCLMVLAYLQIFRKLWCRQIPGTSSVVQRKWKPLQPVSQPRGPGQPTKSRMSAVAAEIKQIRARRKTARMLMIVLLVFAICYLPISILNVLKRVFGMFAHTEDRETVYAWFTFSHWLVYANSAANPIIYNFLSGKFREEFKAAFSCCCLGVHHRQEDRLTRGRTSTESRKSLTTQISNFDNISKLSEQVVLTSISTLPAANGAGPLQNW

[2] = (§1) Counterscreen for antagonists of the orexin 1 receptor (OX1R; HCRTR1): Fluorescence-based cell-based high throughput dose response assay to identify antagonists of the parental CHO cell line. [Related pubchem assays (depositor defined):AID434989, AID435008, AID463079, AID485270, AID492963, AID492964, AID492965, AID493232, AID504699, AID504701]; type: functional
[3] = target: T2, Orexin/Hypocretin receptor type 1 (Homo sapiens, UniProt O43613); test: (§2) Fluorescence-based cell-based high throughput dose response assay for antagonists of the orexin 1 receptor (OX1R; HCRTR1). [Related pubchem assays (depositor defined):AID434989, AID435008, AID463079, AID485270, AID492963, AID492964, AID492965, AID493232, AID504717, AID504718]; type: functional
T2 sequence (O43613 whole entry): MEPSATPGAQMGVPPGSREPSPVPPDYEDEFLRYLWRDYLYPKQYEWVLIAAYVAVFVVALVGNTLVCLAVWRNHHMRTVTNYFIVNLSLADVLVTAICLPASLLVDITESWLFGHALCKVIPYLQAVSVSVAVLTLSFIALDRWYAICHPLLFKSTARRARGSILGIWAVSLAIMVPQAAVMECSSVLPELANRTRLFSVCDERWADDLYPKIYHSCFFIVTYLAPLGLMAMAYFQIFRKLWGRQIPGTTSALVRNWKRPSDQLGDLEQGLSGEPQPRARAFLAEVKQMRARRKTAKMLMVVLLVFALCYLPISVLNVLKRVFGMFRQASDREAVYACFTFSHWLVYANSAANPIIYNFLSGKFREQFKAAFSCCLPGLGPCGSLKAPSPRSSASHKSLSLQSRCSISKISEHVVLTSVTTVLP

[4] = target: T2, Orexin/Hypocretin receptor type 1; test: as §2, with “Homogeneous Time Resolved Fluorescence (HTRF)-based” for “Fluorescence-based”; type: functional
CHO-K1 = test: as §1, with “Homogeneous time resolved fluorescence (HTRF)-based” for “Fluorescence-based”, “cell-based” for “cell-based high throughput”, “CHO-K1” for “CHO”; type: functional; conditions: Cricetulus griseus
Orexin receptor type 2 [5] = target: T1, Orexin receptor type 2; test: Counterscreen assay for antagonists of the orexin 1 receptor (OX1R; HCRTR1): Fluorescence-based cell-based dose response assay for antagonists of the orexin 2 receptor (OX2R; HCRTR2), run by assay provider.; type: functional
[6] = target: T3, DNA repair and recombination protein RAD54-like (Homo sapiens, UniProt Q92698); test: RAD54 Holliday junction migration blockers – biochemical, fluorescence, cherry-picked samples, dose series, confirmation (AID 651657); type: functional
T3 sequence (Q92698 whole entry): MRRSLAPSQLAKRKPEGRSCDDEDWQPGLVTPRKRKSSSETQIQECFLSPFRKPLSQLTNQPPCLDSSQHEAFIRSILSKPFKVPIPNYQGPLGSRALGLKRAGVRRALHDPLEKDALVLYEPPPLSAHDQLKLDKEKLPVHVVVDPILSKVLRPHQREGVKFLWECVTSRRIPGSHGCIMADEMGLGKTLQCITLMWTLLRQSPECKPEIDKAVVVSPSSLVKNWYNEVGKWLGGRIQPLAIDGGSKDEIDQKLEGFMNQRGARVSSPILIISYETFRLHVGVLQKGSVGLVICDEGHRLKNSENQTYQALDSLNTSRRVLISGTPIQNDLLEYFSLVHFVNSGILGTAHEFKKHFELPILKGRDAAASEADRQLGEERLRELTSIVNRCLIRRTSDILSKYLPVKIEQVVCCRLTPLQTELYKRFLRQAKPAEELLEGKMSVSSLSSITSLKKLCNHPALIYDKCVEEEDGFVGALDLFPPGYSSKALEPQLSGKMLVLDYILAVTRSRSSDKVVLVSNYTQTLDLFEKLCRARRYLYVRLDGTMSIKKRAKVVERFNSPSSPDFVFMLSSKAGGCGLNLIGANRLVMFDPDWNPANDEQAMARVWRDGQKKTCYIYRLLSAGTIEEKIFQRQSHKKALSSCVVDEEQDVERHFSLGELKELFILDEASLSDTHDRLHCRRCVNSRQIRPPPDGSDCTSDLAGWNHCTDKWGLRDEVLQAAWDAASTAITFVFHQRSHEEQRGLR

[7] = target: T4, High affinity choline transporter 1 (Homo sapiens, UniProt Q9GZV3); test: human choline transporter blockers, potency – cell-based, 5-point CRC, membrane potential dye, dose response (AID 504840); type: functional
T4 sequence (Q9GZV3 whole entry): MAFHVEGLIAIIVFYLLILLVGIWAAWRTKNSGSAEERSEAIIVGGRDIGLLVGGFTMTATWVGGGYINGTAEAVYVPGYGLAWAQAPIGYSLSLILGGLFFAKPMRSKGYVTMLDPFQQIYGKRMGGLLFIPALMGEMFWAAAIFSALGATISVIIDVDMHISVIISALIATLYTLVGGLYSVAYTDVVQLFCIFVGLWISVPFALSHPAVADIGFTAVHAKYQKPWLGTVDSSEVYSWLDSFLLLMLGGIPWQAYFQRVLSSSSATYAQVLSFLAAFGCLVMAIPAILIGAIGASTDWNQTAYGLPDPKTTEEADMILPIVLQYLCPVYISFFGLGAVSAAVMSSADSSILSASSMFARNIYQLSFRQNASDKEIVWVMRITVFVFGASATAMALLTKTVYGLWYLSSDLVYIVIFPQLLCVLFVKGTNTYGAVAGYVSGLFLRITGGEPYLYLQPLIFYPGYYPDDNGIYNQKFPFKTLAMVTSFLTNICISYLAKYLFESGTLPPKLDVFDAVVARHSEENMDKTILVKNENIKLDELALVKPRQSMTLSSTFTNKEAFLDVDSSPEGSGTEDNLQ

[8] = target: T5, Polyadenylate-binding protein 1 (Homo sapiens, UniProt P11940); test: MLLE binding blockers, Cy5 peptide tracer – biochemical, fluorescence polarization, Cy5-PAM2 peptide, secondary, miRNA deadenylation inhibitor project, dose response (AID 602260); type: functional; conditions: read-out: IC50_Mean
T5 sequence (P11940 whole entry): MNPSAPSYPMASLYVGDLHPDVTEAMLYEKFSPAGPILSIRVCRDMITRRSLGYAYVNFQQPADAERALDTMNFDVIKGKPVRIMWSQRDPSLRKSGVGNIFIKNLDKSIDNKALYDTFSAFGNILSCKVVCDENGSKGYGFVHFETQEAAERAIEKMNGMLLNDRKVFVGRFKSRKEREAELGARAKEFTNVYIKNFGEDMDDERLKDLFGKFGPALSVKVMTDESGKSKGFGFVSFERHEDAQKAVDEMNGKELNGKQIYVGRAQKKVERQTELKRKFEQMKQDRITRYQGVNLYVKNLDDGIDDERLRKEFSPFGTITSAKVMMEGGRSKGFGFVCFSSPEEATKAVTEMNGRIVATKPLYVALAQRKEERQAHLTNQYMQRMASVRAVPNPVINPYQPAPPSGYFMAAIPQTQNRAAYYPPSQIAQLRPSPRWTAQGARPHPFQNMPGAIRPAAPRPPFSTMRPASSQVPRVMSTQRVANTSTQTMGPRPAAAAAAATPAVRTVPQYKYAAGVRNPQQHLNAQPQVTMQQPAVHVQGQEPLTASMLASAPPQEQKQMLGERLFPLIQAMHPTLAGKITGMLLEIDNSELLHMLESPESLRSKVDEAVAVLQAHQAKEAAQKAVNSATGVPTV

Genome polyprotein = Genome polyprotein (dengue virus type 2, UniProt P29990); test: flavivirus cap methylation enzyme inhibition – biochemical, confirmation dose response, primary screen (AID 588689); type: functional
Chain of Genome polyprotein (P29990 2492-3391 limits assumed): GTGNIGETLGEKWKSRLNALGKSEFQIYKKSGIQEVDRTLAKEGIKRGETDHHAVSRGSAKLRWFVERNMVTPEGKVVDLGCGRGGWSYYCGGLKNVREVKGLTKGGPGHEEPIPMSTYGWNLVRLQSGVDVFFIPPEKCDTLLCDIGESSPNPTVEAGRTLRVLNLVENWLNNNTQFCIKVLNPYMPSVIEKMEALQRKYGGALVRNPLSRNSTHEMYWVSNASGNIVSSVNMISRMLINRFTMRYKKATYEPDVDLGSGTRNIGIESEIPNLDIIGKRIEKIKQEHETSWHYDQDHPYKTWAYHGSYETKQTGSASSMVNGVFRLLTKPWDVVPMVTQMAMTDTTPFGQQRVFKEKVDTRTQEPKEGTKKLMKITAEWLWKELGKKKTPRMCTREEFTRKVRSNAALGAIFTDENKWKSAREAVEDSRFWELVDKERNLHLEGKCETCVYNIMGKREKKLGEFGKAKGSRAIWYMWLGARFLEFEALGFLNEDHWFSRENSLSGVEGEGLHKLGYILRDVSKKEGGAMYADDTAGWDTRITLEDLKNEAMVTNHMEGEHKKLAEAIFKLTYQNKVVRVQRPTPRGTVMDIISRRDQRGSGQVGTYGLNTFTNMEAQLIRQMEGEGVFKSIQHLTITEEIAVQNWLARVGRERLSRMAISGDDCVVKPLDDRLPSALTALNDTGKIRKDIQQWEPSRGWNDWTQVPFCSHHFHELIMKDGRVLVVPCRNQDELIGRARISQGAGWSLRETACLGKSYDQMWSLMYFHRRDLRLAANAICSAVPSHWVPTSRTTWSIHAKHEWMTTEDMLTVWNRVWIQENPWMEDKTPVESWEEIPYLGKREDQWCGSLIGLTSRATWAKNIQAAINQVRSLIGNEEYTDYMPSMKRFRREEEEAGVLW

Vero [9] = test: cells; type: functional; conditions: Chlorocebus sabaeus
[10] = target: Heat shock protein HSP 90-alpha (Homo sapiens, UniProt P07900); type: functional, organism-based
[11] = target: T6, Heat shock factor protein 1 (Mus musculus, UniProt P38532); test: enhancement of HSF1-driven luciferase signal – cell-based, NIH3T3, luminescence, dose retest, confirmation (AID 435004); type: functional;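 further: stress induced by proteasome inhibitor MG132 added 30 min after compound; luciferase reporter driven by HSF1 response element in NIH3T3 cells; actives raise luminescence as potentiators of the MG132 stress response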
T6 sequence (P38532 whole entry): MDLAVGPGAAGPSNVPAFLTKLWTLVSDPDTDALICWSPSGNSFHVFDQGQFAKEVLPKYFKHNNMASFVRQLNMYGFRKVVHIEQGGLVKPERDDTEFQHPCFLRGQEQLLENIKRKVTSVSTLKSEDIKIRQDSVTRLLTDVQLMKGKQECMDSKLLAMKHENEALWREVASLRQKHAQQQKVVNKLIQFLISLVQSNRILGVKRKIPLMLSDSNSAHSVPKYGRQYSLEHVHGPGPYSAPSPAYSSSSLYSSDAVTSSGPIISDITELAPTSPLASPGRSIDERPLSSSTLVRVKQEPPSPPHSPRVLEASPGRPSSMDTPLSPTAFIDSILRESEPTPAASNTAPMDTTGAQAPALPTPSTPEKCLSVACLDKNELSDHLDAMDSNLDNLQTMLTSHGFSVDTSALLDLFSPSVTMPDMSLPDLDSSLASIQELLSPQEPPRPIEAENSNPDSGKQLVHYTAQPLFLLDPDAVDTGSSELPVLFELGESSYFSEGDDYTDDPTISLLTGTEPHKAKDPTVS

[12] = Luminescence Cell-Based Dose Retest to Confirm Inhibitors of Cancer Stem Cells. [Related pubchem assays (depositor defined):AID2717, AID2721]; type: functional; conditions: Homo sapiens
[13] = target: T5, Polyadenylate-binding protein 1; test: MLLE domain peptide-binding blockers, IC50 – biochemical, fluorescence polarization, FITC-PAM2 peptide, dose response (AID 602259); type: functional; conditions: read-out: IC50_Mean
[14] = Trypanosoma cruzi growth suppression in host cells – NIH3T3 host cells, beta-gal luminescence, confirmation (AID 2044); type: functional, cell-based;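 further: intracellular parasites grown in NIH/3T3 mouse fibroblasts as host cells; luminescent beta-galactosidase reporter signal from transgenic T. cruzi replicating inside host cells; inhibitors lower the luminescence signal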
[15] = NIH3T3 cell viability loss – ATP luminescence, mouse fibroblasts, counter-screen, dose response (AID 2010); type: functional, cell-based;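 further: cells exposed to compound for about 90 hours before reading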
Vero [16] = test: viability of Vero cells under compound – cytotoxicity control for flavivirus capping enzyme inhibitors (AID 588742); type: functional; conditions: Chlorocebus sabaeus

## Cc1noc(C)c1COC(=O)c1ccc2c(c1)S(=O)(=O)c1ccccc1C2=O
Orexin receptor type 2 [1]
  IC50: > 50 µM (inactive)
[2]
  IC50: > 49.7 µM (inactive)
[3]
  IC50: 4 µM (active)
[4]
  IC50: 1.2 µM (active)
CHO-K1
  IC50: 18.5 µM (inactive)
Orexin receptor type 2 [5]
  IC50: > 88.8 µM (inactive)

## c1c[nH]c(CN2CCN(Cc3ncc[nH]3)CC2)n1
[6]
  AC50: 63.3 µM (active)

## CCN1CCN(CCCNC(=O)c2cc3c(O)nc4ccccc4c3s2)CC1
[6]
  AC50: 46.5 µM (active)

## CC(=C/c1ccccc1)/C=C1/SC(N2CCOCC2)=NC1=O
Orexin receptor type 2 [1]
  IC50: 26 µM (inactive)
[2]
  IC50: > 49.8 µM (inactive)
[3]
  IC50: 3.82 µM (active)
[4]
  IC50: 0.51 µM (active)
CHO-K1
  IC50: 40.7 µM (inactive)
Orexin receptor type 2 [5]
  IC50: > 88.8 µM (inactive)

## CCN(Cc1ccccc1)S(=O)(=O)c1cc(C(=O)NC2CCCCCC2)ccc1OC
[7]
  IC50: 0.575 µM (active)

## CC(C)(C)c1ccc(C(=O)CC(Sc2ccc(Cl)cc2)C(=O)O)cc1 (stereo unspecified)
[8]
  IC50: > 66 µM (inactive)
Genome polyprotein
  IC50: 38.1 µM (active)
Vero [9]
  CC50: 23.2 µM (active)
[10]
  AC50: 4.71 µM (active)
[11]
  EC50: 137 µM (active)
[12]
  AC50: 4.12 µM (active)
[7]
  IC50: 12.6 µM (active)
[13]
  IC50: > 66 µM (inactive)
[14]
  EC50: 2.02 µM (active)
[15]
  EC50: > 60 µM (not active)
Vero [16]
  CC50: 35.9 µM (active)

Source: ChEMBL document CHEMBL1201862, “PubChem BioAssay data set” (2004)
